The results in this text go back to patent US20040204417A1, “Novel benzothienyl or indole derivatives, preparation and use thereof as inhibitors of prenyl transferase proteins” (priority 2001, published 2004).

Test [1] deals with T1, protein farnesyl transferase (Bos taurus, UniProt P29702+P49355).
T1 construct: partially purified from bovine brain by ion-exchange chromatography; from tissue; host or cells: bovine brain
The test is described as follows: Evaluation of the inhibition of protein farnesyl transferase (dansyl-GCVLS fluorescence). It is filed as biochemical, bovine. Particulars: read-out: IC50 PFTase. The protocol: A) Evaluation of the inhibition of protein farnesyl transferase
The farnesylation of the dansylated peptide GCVLS, catalyzed with the enzyme protein farnesyl transferase, results in a change in the emission spectrum of the dansyl group, and especially an increase in the emission at 505 nm when the molecule is excited at 340 nm. When measured using the spectrofluorimeter, this emission is proportional to the activity of the enzyme (Pompliano et al., J. Am. Chem. Soc. 1992; 114: 7945-7946).
55 mM TRIS/HCl pH 7.5; 5.5 mM DTT; 5.5 mM MgCl2; 110 μM ZnCl2, 0.22% B-octyl-B D-glucopyrannoside.
Farnesyl pyrophosphate (FPP), (Sigma)
Dansylated peptide dansyl-GCVLS (Neosystem/Strasbourg, France)
The protein farnesyl transferase is partially purified from bovine brain by ion-exchange chromatography on Q-sepharose (Pharmacia) (Moores et al., J. Biol. Chem. 1991, 266: 14603-14610, Reiss et al., Cell 1990, 62: 81-88).
The reaction mixture containing 2 μM of FPP, 2 μM of dansyl GCVLS with or without (zero) the amount of enzyme giving an intensity of 100 on the spectrofluorimeter after incubation for 10 minutes at 37° C., is prepared on ice.
In an Eppendorf tube, 360 μl of reaction mixture are mixed with 40 μl of 10× concentrated test product or of solvent, and incubated for 10 minutes at 37° C. The reaction is quenched on ice and the fluorescence intensity is measured (excitation at 340 nm, 4 nm slit, emission at 505 nm, 10 nm slit). The tests are performed in duplicate. The results are expressed as a percentage of inhibition. Under these conditions, the derivatives of the present invention were identified as powerful inhibitors of protein farnesyl transferase (IC50<10 μM).
Adaptation of the method to a 96-wellformat:
The procedure is similar to that above, except that the measurements are performed in a “Black Fluorotrack 200” 96-well device (Greiner, Poitiers, France) and the readings are performed using a “Spectrametrix Gemini” 96-well fluorimeter (Molecular Devices, Sunnyvale, Calif., USA)

For a further test, the target named is T2, GGPT I (Bos taurus, UniProt P29702+Q5EAD5).
T2 construct: GGPT I is partially purified from bovine brain by ion-exchange chromatography; from tissue; host or cells: bovine brain
Nature of the test: Evaluation of the inhibition of geranyl geranyl transferase protein I (3H-GGPP incorporation into RhoA-GST). The following applies: read-out: IC50 PGGTase. It is filed as biochemical, bovine. As for the experimental part:
B) Evaluation of the inhibition of geranyl geraryl transferase protein I:
55 mM TRIS/HCl pH 7.5; 5.5 mM DTT; 5.5 mM MgCl2; 110 μM ZnCl2, 0.22% N-octyl-B D-glucopyrannoside.
^3H-geranylgeranyl pyrophosphate (GGPP), 66 μM, 15 CI/mmol, (Isotopchim)
Rho-GST recombinant protein
GGPT I is partially purified from bovine brain by ion-exchange chromatography on Q-sepharose (Pharmacia); elution at 0.23 and 0.4 M NaCl, respectively.
The reaction mixture containing 0.2 μM of ^3H-GGPP, 1 μM of RhoA-GST with or without (zero) 5 μl of GGPT/test, is prepared on ice.
In an Eppendorf tube, 45 μl of reaction mixture are mixed with 5 μl of 10× concentrated test product or of solvent, and incubated for 45 minutes at 37° C. A 45 μl aliquot is placed on a phosphocellulose P81 filter (Whatman, Maidstone, UK) numbered, washed with 50% ethanol, phosphoric acid (0.5%) and counted by scintillation.
The tests are performed in duplicate. The results are expressed as a percentage of inhibition.
Adaptation of the method to a 96-wellformat
The procedure is similar to that above, except that the measurements are performed in 96-well plates (Nunc, France) and the reactions are then passed through a 96-well “Unifilter” (Whatman, Maidstone, UK) containing a phosphocellulose P81 buffer using a “Filtermate 196” system (Packard, France).
After washing with 50% ethanol and phosphoric acid (0.5%), the filters are counted by scintillation on a “Packard Topcount” instrument.
The tests are performed in triplicate. The results are expressed as a percentage of inhibition.

For `CC(C)C[C@H](NC(=O)c1cc2c(NCc3cncn3Cc3ccc(C#N)cc3)cccc2s1)C(=O)O` [Example 28, (2S)-2-[(4-{[3-(4-cyanobenzyl)-3H-imidazol-4-ylmethyl]amino}benzo[b]thiophene-2-carbonyl)amino]-4-methylpentanoic acid], the IC50 (as a rule, the concentration needed to halve the response being measured) in test [1] amounted to 4 nM; at GGPT I, 10 nM.
Regarding `CSCC[C@H](NC(=O)c1cc2c(N(Cc3cncn3Cc3ccc(C#N)cc3)S(=O)(=O)c3ccccc3)cccc2s1)C(=O)O` [Example 30, (2S)-2-[(4-{benzenesulfonyl-[3-(4-cyanobenzyl)-3H-imidazol-4-ylmethyl]amino}benzo[b]thiophene-2-carbonyl)amino]-4-(methylsulfanyl)butyric acid], the IC50 in test [1] came to 6 nM.
Turning to `CC(C)C[C@H](NC(=O)c1cc2cc(N(Cc3cncn3Cc3ccc(C#N)cc3)S(=O)(=O)c3ccccc3)ccc2s1)C(=O)O` [Example 33, (2S)-2-[(5-{benzenesulfonyl-[3-(4-cyanobenzyl)-3H-imidazol-4-ylmethyl]amino}benzo[b]thiophene-2-carbonyl)amino]-4-methylpentanoic acid], the IC50 in test [1] worked out at 6 nM; on GGPT I, 70 nM.
As to `CCOC(=O)c1cc2cc(NCc3cncn3Cc3ccc(C#N)cc3)ccc2s1` [Example 34, Ethyl 5-{[3-(4-cyanobenzyl)-3H-imidazol-4-ylmethyl]amino}benzo[b]thiophene-2-carboxylate], the IC50 in test [1] stood at 10 nM.
Same read-out and setting: the value for `COC(=O)[C@H](CCSC)NC(=O)c1cc2cc(N(Cc3cncn3Cc3ccc(C#N)cc3)S(=O)(=O)c3ccccc3)ccc2s1` [Example 40] was 2 nM; that for `N#Cc1ccc(Cn2cncc2CN(c2ccc3sc(C(=O)NCc4cccs4)cc3c2)S(=O)(=O)c2ccccc2)cc1` [Example 46, N-(Thiophen-2-ylmethyl)-5-{benzenesulfonyl-[3-(4-cyanobenzyl)-3H-imidazol-4-ylmethyl]amino}benzo[b]thiophene-2-carboxamide] was 1 nM; that for `N#Cc1ccc(Cn2cncc2CN(c2ccc3sc(C(=O)NC4CCCC4)cc3c2)S(=O)(=O)c2ccccc2)cc1` [Example 55, N-Cyclopentyl-5-{benzenesulfonyl-[3-(4-cyanobenzyl)-3H-imidazol-4-ylmethyl]amino}benzo[b]thiophene-2-carboxamide] was 3 nM.
Turning to `CCCCNC(=O)c1cc2cc(N(Cc3cncn3Cc3ccc(C#N)cc3)S(=O)(=O)c3ccccc3)ccc2s1` [Example 57, N-Butyl-5-{benzenesulfonyl-[3-(4-cyanobenzyl)-3H-imidazol-4-ylmethyl]amino}benzo[b]thiophene-2-carboxamide], the IC50 in test [1] came out at 3 nM.
For the molecule `N#Cc1ccc(Cn2cncc2CN(C(=O)c2cccs2)c2ccc3sc(C(=O)N4CCSCC4)cc3c2)cc1` [Example 91, N-[3-(4-Cyanobenzyl)-3H-imidazol-4-ylmethyl]-N-[2-(thiomorpholine-4-carbonyl)benzo[b]thiophen-5-yl]thiophene-2-carboxamide], the IC50 in test [1] was found to be 2 nM.
On the same count and under the same terms, the value for `CCCC(=O)N(Cc1cncn1Cc1ccc(C#N)cc1)c1ccc2sc(C(=O)N3CCSCC3)cc2c1` [Example 92, N-[3-(4-Cyanobenzyl)-3H-imidazol-4-ylmethyl]-N-[2-(thiomorpholine-4-carbonyl)benzo[b]thiophen-5-yl]butyramide] was 2 nM; that for `N#Cc1ccc(Cn2cncc2CN(C(=O)c2cccc(F)c2)c2ccc3sc(C(=O)N4CCSCC4)cc3c2)cc1` [Example 97, N-[3-(4-Cyanobenzyl)-3H-imidazol-4-ylmethyl]-N-[2-(thiomorpholine-4-carbonyl)benzo[b]thiophen-5-yl]-3-fluorobenzamide] was 1 nM; that for `N#Cc1ccc(Cn2cncc2CN(C(=O)Cc2ccccc2)c2ccc3sc(C(=O)N4CCSCC4)cc3c2)cc1` [Example 100, N-[3-(4-Cyanobenzyl)-3H-imidazol-4-ylmethyl]-N-[2-(thiomorpholine-4-carbonyl)benzo[b]thiophen-5-yl]-2-phenylacetamide] was 6 nM.
Same read-out and setting: as for `N#Cc1ccc(Cn2cncc2CN(C(=O)C2CCCCC2)c2ccc3sc(C(=O)N4CCSCC4)cc3c2)cc1` [Example 101, N-[3-(4-Cyanobenzyl)-3H-imidazol-4-ylmethyl]-N-[2-(thiomorpholine-4-carbonyl)benzo[b]thiophen-5-yl]cyclohexanecarboxamide], the figure is 5 nM; as for `CCCCN(Cc1cncn1Cc1ccc(C#N)cc1)c1ccc2sc(C(=O)N3CCSCC3)cc2c1` [Example 113, 4-[5-({Butyl[2-(thiomorpholine-4-carbonyl)benzo[b]thiophen-5-yl]amino}methyl)imidazol-1-ylmethyl]benzonitrile], 8 nM.
For the molecule `N#Cc1ccc(Cn2cncc2CN(C(=O)c2ccccc2)c2ccc3[nH]c(C(=O)N4CCCCC4)c(-c4ccccc4)c3c2)cc1` [Example 164, N-[3-(4-Cyanobenzyl)-3H-imidazol-4-ylmethyl]-N-[3-phenyl-2-(piperidine-1-carbonyl)-1H-indol-5-yl]benzamide], the IC50 is 8 nM in test [1] and 20 nM at GGPT I.
Turning to `N#Cc1ccc(Cn2cncc2CN(C(=O)c2ccccc2)c2ccc3[nH]c(C(=O)N4CCSCC4)c(-c4ccccc4)c3c2)cc1` [Example 165, N-[3-(4-Cyanobenzyl)-3H-imidazol-4-ylmethyl]-N-[3-phenyl-2-(thiomorpholine-4-carbonyl)-1H-indol-5-yl]benzamide], the half-maximal inhibitory concentration (IC50) amounted to 10 nM in test [1] and 60 nM at GGPT I.
`N#Cc1ccc(Cn2cncc2CN(C(=O)C2CCCCC2)c2ccc3[nH]c(C(=O)N4CCCCC4)c(-c4ccccc4)c3c2)cc1` [Example 167, Cyclohexanecarboxylic-[3-(4-cyanobenzyl)-3H-imidazol-4-ylmethyl]-[3-phenyl-2-(piperidine-1-carbonyl)-1H-indol-5-yl]amide acid]: the IC50 in test [1] is 400 nM; at GGPT I, 7 nM.
